Test results from patent US7884136B2, “Modified-release formulations of a bupropion salt” (Biovail Laboratories International S.R.L., priority 2005, dated 2011).

Experiment: Shelf life stability program of bupropion HBr, 25° C./60% RH, 3 and 6 months, HPLC
Type: physicochemical
Conditions: 25° C./RH 60%; for Chromatographic purity B) (HPLC): 4) 2-N-(tert-Butyl)-aminopropiophenone / Chromatographic purity B) (HPLC): 5) single unknown impurity (each): LOQ 0.02%, LOD 0.002%; for Chromatographic purity A) (HPLC): 1) 3′-Chloropropiophenone / Chromatographic purity A) (HPLC): 3) 3′-Chlorobenzoic acid / Chromatographic purity A) (HPLC): 2) 3′-Chloro-2-bromopropiophenone: LOQ 0.05%; for Chromatographic purity A) (HPLC): 1) 3′-Chloropropiophenone / Chromatographic purity A) (HPLC): 3) 3′-Chlorobenzoic acid: LOD 0.01%; for Chromatographic purity A) (HPLC): 2) 3′-Chloro-2-bromopropiophenone: LOD 0.04%; for Description: specification white or almost white crystalline powder; for Chromatographic purity B) (HPLC): 6) total unknown impurities: sum of all impurity peak areas; for Assay (HPLC): on d.b.
Experimental: The stability of bupropion HBr was studied over a longer term under conditions meant to approximate standard storage or shelf conditions. Samples were prepared in closed containers and subjected to long-term storage at 25° C.+2° C. and 60%+5% RH in a stability chamber. The samples were analyzed by HPLC prior to being placed in the stability chamber (time 0) and after 3 months and 6 months. The amounts of the main degradation products present at time 0 were compared with the amounts present at 3 months and 6 months. As shown in Table 77-79 three different batches of bupropion HBr were tested. As in Example 10 each sample was tested under two HPLC assay conditions to identify 6 impurities or groups of impurities as described in Example 10.

Br.CC(NC(C)(C)C)C(=O)c1cccc(Cl)c1 (stereo not shown) [Bupropion•HBr D00896]
Chromatographic purity (HPLC: A + B) Total impurities (3 months): 0.1% | Water content (K.F.) (3 months): 0.04% | Chromatographic purity B) (HPLC): 4) 2-N-(tert-Butyl)-aminopropiophenone (3 months): 4) 0.03% | Chromatographic purity B) (HPLC): 5) single unknown impurity (each) (3 months): 5) 0.04% | Chromatographic purity A) (HPLC): 1) 3′-Chloropropiophenone (3 months): 1) n.q. | Chromatographic purity A) (HPLC): 3) 3′-Chlorobenzoic acid (3 months): 3) n.q. | Chromatographic purity A) (HPLC): 2) 3′-Chloro-2-bromopropiophenone (3 months): 2) n.d. | Description (3 months): conform | Chromatographic purity B) (HPLC): 6) total unknown impurities (3 months): 6) 0.05% | Chromatographic purity (HPLC: A + B) Total impurities (6 months): 0.1% | Water content (K.F.) (6 months): 0.04% | Chromatographic purity B) (HPLC): 4) 2-N-(tert-Butyl)-aminopropiophenone (6 months): 4) 0.04% | Chromatographic purity B) (HPLC): 5) single unknown impurity (each) (6 months): 5) n.q. | Chromatographic purity A) (HPLC): 1) 3′-Chloropropiophenone (6 months): 1) 0.05% | Chromatographic purity A) (HPLC): 3) 3′-Chlorobenzoic acid (6 months): 3) n.q. | Chromatographic purity A) (HPLC): 2) 3′-Chloro-2-bromopropiophenone (6 months): 2) n.d. | Assay (HPLC) (6 months): 100.5% | Description (6 months): conform | Chromatographic purity B) (HPLC): 6) total unknown impurities (6 months): 6) n.q. | Chromatographic purity (HPLC: A + B) Total impurities (9 months): n.q. | Water content (K.F.) (9 months): 0.04% | Chromatographic purity B) (HPLC): 4) 2-N-(tert-Butyl)-aminopropiophenone (9 months): 4) n.d. | Chromatographic purity B) (HPLC): 5) single unknown impurity (each) (9 months): 5) n.q. | Chromatographic purity A) (HPLC): 1) 3′-Chloropropiophenone (9 months): 1) n.q. | Chromatographic purity A) (HPLC): 3) 3′-Chlorobenzoic acid (9 months): 3) n.q. | Chromatographic purity A) (HPLC): 2) 3′-Chloro-2-bromopropiophenone (9 months): 2) n.d. | Description (9 months): conform | Chromatographic purity B) (HPLC): 6) total unknown impurities (9 months): 6) n.q. | Chromatographic purity (HPLC: A + B) Total impurities (12 months): 0.1% | Water content (K.F.) (12 months): 0.03% | Chromatographic purity B) (HPLC): 4) 2-N-(tert-Butyl)-aminopropiophenone (12 months): 4) 0.05% | Chromatographic purity B) (HPLC): 5) single unknown impurity (each) (12 months): 5) 0.07% | Chromatographic purity A) (HPLC): 1) 3′-Chloropropiophenone (12 months): 1) n.d. | Chromatographic purity A) (HPLC): 3) 3′-Chlorobenzoic acid (12 months): 3) n.q. | Chromatographic purity A) (HPLC): 2) 3′-Chloro-2-bromopropiophenone (12 months): 2) n.d. | Assay (HPLC) (12 months): 100.3% | Description (12 months): conform | Chromatographic purity B) (HPLC): 6) total unknown impurities (12 months): 6) 0.07% | Chromatographic purity (HPLC: A + B) Total impurities (time 0): 0.1% | Water content (K.F.) (time 0): 0.06% | Chromatographic purity B) (HPLC): 4) 2-N-(tert-Butyl)-aminopropiophenone (time 0): 4) 0.04% | Chromatographic purity B) (HPLC): 5) single unknown impurity (each) (time 0): 5) 0.05% | Chromatographic purity A) (HPLC): 1) 3′-Chloropropiophenone (time 0): 1) n.d. | Chromatographic purity A) (HPLC): 3) 3′-Chlorobenzoic acid (time 0): 3) n.q. | Chromatographic purity A) (HPLC): 2) 3′-Chloro-2-bromopropiophenone (time 0): 2) n.d. | Assay (HPLC) (time 0): 99.3% | Description (time 0): conform | Chromatographic purity B) (HPLC): 6) total unknown impurities (time 0): 6) 0.05%

Br.CC(NC(C)(C)C)C(=O)c1cccc(Cl)c1 (stereo not shown) [Bupropion•HBr D00894]
Chromatographic purity (HPLC: A + B) Total impurities (3 months): 0.1% | Water content (K.F.) (3 months): 0.05% | Chromatographic purity B) (HPLC): 4) 2-N-(tert-Butyl)-aminopropiophenone (3 months): 4) 0.03% | Chromatographic purity B) (HPLC): 5) single unknown impurity (each) (3 months): 5) 0.04% | Chromatographic purity A) (HPLC): 1) 3′-Chloropropiophenone (3 months): 1) n.q. | Chromatographic purity A) (HPLC): 3) 3′-Chlorobenzoic acid (3 months): 3) n.q. | Chromatographic purity A) (HPLC): 2) 3′-Chloro-2-bromopropiophenone (3 months): 2) n.d. | Description (3 months): conform | Chromatographic purity (HPLC: A + B) Total impurities (6 months): 0.1% | Water content (K.F.) (6 months): 0.06% | Chromatographic purity B) (HPLC): 4) 2-N-(tert-Butyl)-aminopropiophenone (6 months): 4) 0.05% | Chromatographic purity B) (HPLC): 5) single unknown impurity (each) (6 months): 5) n.q. | Chromatographic purity A) (HPLC): 1) 3′-Chloropropiophenone (6 months): 1) 0.05% | Chromatographic purity A) (HPLC): 3) 3′-Chlorobenzoic acid (6 months): 3) n.q. | Chromatographic purity A) (HPLC): 2) 3′-Chloro-2-bromopropiophenone (6 months): 2) n.d. | Assay (HPLC) (6 months): 100.2% | Description (6 months): conform | Chromatographic purity (HPLC: A + B) Total impurities (9 months): n.q. | Water content (K.F.) (9 months): 0.05% | Chromatographic purity B) (HPLC): 4) 2-N-(tert-Butyl)-aminopropiophenone (9 months): 4) n.d. | Chromatographic purity B) (HPLC): 5) single unknown impurity (each) (9 months): 5) n.q. | Chromatographic purity A) (HPLC): 1) 3′-Chloropropiophenone (9 months): 1) n.q. | Chromatographic purity A) (HPLC): 3) 3′-Chlorobenzoic acid (9 months): 3) n.q. | Chromatographic purity A) (HPLC): 2) 3′-Chloro-2-bromopropiophenone (9 months): 2) n.d. | Description (9 months): conform | Chromatographic purity B) (HPLC): 6) total unknown impurities (9 months): 6) n.q. | Chromatographic purity (HPLC: A + B) Total impurities (12 months): 0.2% | Water content (K.F.) (12 months): 0.05% | Chromatographic purity B) (HPLC): 4) 2-N-(tert-Butyl)-aminopropiophenone (12 months): 4) 0.05% | Chromatographic purity B) (HPLC): 5) single unknown impurity (each) (12 months): 5) 0.05% | Chromatographic purity A) (HPLC): 1) 3′-Chloropropiophenone (12 months): 1) n.d. | Chromatographic purity A) (HPLC): 3) 3′-Chlorobenzoic acid (12 months): 3) 0.05% | Chromatographic purity A) (HPLC): 2) 3′-Chloro-2-bromopropiophenone (12 months): 2) n.d. | Assay (HPLC) (12 months): 99.6% | Description (12 months): conform | Chromatographic purity B) (HPLC): 6) total unknown impurities (12 months): 6) 0.07% | Chromatographic purity (HPLC: A + B) Total impurities (time 0): 0.1% | Water content (K.F.) (time 0): 0.05% | Chromatographic purity B) (HPLC): 4) 2-N-(tert-Butyl)-aminopropiophenone (time 0): 4) 0.04% | Chromatographic purity B) (HPLC): 5) single unknown impurity (each) (time 0): 5) 0.04% | Chromatographic purity A) (HPLC): 1) 3′-Chloropropiophenone (time 0): 1) n.d. | Chromatographic purity A) (HPLC): 3) 3′-Chlorobenzoic acid (time 0): 3) n.q. | Chromatographic purity A) (HPLC): 2) 3′-Chloro-2-bromopropiophenone (time 0): 2) n.d. | Assay (HPLC) (time 0): 99.6% | Description (time 0): conform

Br.CC(NC(C)(C)C)C(=O)c1cccc(Cl)c1 (stereo not shown) [Bupropion•HBr D00895]
Chromatographic purity (HPLC: A + B) Total impurities (3 months): 0.1% | Water content (K.F.) (3 months): 0.04% | Chromatographic purity B) (HPLC): 4) 2-N-(tert-Butyl)-aminopropiophenone (3 months): 4) 0.03% | Chromatographic purity B) (HPLC): 5) single unknown impurity (each) (3 months): 5) 0.04% | Chromatographic purity A) (HPLC): 1) 3′-Chloropropiophenone (3 months): 1) n.q. | Chromatographic purity A) (HPLC): 3) 3′-Chlorobenzoic acid (3 months): 3) n.q. | Chromatographic purity A) (HPLC): 2) 3′-Chloro-2-bromopropiophenone (3 months): 2) n.d. | Description (3 months): conform | Chromatographic purity (HPLC: A + B) Total impurities (6 months): 0.1% | Water content (K.F.) (6 months): 0.05% | Chromatographic purity B) (HPLC): 4) 2-N-(tert-Butyl)-aminopropiophenone (6 months): 4) 0.05% | Chromatographic purity B) (HPLC): 5) single unknown impurity (each) (6 months): 5) n.q. | Chromatographic purity A) (HPLC): 1) 3′-Chloropropiophenone (6 months): 1) 0.05% | Chromatographic purity A) (HPLC): 3) 3′-Chlorobenzoic acid (6 months): 3) n.q. | Chromatographic purity A) (HPLC): 2) 3′-Chloro-2-bromopropiophenone (6 months): 2) n.d. | Assay (HPLC) (6 months): 100.1% | Description (6 months): conform | Chromatographic purity B) (HPLC): 6) total unknown impurities (6 months): 6) 0.02% | Chromatographic purity (HPLC: A + B) Total impurities (9 months): n.q. | Water content (K.F.) (9 months): 0.05% | Chromatographic purity B) (HPLC): 4) 2-N-(tert-Butyl)-aminopropiophenone (9 months): 4) n.d. | Chromatographic purity B) (HPLC): 5) single unknown impurity (each) (9 months): 5) n.q. | Chromatographic purity A) (HPLC): 1) 3′-Chloropropiophenone (9 months): 1) n.q. | Chromatographic purity A) (HPLC): 3) 3′-Chlorobenzoic acid (9 months): 3) n.q. | Chromatographic purity A) (HPLC): 2) 3′-Chloro-2-bromopropiophenone (9 months): 2) n.d. | Description (9 months): conform | Chromatographic purity B) (HPLC): 6) total unknown impurities (9 months): 6) n.q. | Chromatographic purity (HPLC: A + B) Total impurities (12 months): 0.2% | Water content (K.F.) (12 months): 0.04% | Chromatographic purity B) (HPLC): 4) 2-N-(tert-Butyl)-aminopropiophenone (12 months): 4) 0.05% | Chromatographic purity B) (HPLC): 5) single unknown impurity (each) (12 months): 5) 0.07% | Chromatographic purity A) (HPLC): 1) 3′-Chloropropiophenone (12 months): 1) n.d. | Chromatographic purity A) (HPLC): 3) 3′-Chlorobenzoic acid (12 months): 3) 0.05% | Chromatographic purity A) (HPLC): 2) 3′-Chloro-2-bromopropiophenone (12 months): 2) n.d. | Description (12 months): conform | Chromatographic purity B) (HPLC): 6) total unknown impurities (12 months): 6) 0.07% | Chromatographic purity (HPLC: A + B) Total impurities (time 0): 0.1% | Water content (K.F.) (time 0): 0.04% | Chromatographic purity B) (HPLC): 4) 2-N-(tert-Butyl)-aminopropiophenone (time 0): 4) 0.04% | Chromatographic purity B) (HPLC): 5) single unknown impurity (each) (time 0): 5) 0.04% | Chromatographic purity A) (HPLC): 1) 3′-Chloropropiophenone (time 0): 1) n.d. | Chromatographic purity A) (HPLC): 3) 3′-Chlorobenzoic acid (time 0): 3) n.q. | Chromatographic purity A) (HPLC): 2) 3′-Chloro-2-bromopropiophenone (time 0): 2) n.d. | Assay (HPLC) (time 0): 99.2% | Description (time 0): conform | Chromatographic purity B) (HPLC): 6) total unknown impurities (time 0): 6) 0.04%
